# Laboratory results as given in patent publication US10428080B2, “TBK/IKK inhibitor compounds and uses thereof” (Merck Patent GmbH, priority 2015, dated 2019).
# Structures can show the parent of a compound that is named as a salt.
# Legend:
# IKKε = target: T1, IKKε (Homo sapiens, UniProt Q14164); assay: IKKe Biochemical Assay; conditions: read-out: IKKε IC50
# T1 sequence (Q14164 1-716): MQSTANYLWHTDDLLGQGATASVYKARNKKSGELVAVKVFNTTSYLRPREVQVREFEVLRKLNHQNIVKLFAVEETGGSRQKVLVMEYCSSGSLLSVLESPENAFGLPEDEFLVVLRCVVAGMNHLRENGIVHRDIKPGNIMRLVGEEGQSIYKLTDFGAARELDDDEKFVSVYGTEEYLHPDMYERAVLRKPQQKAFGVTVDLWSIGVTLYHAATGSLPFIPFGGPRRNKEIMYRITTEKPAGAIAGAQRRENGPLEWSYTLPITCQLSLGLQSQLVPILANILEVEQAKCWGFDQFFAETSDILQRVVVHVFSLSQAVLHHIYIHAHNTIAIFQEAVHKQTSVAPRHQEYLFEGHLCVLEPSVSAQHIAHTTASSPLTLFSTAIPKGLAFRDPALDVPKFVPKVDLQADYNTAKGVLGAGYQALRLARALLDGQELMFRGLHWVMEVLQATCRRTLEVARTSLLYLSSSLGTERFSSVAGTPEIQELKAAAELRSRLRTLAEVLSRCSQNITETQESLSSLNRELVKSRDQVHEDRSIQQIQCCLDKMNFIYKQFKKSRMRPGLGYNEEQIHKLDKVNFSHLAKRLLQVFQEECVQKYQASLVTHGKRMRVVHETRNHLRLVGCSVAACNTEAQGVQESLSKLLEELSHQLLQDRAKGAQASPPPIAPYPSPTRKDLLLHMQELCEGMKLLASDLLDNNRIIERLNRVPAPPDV
# Procedure, shortened: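 Recombinant IKKε and substrate were incubated with compound (10-point 1:4 series, top 30 uM final, 1% DMSO) for 90 min at 25° C, then stopped. Substrate-to-product conversion was read by LabChip microfluidic mobility shift; 10 uM staurosporine served as full-inhibition wells.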
# [1] = tested on: phosphorylation of the IRF-3 protein in MDA-MB-468 cells; assay: pIRF3 immunocytochemistry cell based assay; conditions: Homo sapiens; MDA-MB-468 cells, Poly(I:C) stimulation; read-out: pIRF3 IC50
# Procedure, shortened: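 MDA-MB-468 cells got compounds (10-point, 3-fold from 10 uM) for 1 h at 37 °C, then 10 ug/ml Poly(I:C) for 2 h. Fixed, permeabilized cells were immunostained for pIRF3 with AlexaFluor488 and counterstained with PI. % phosphorylation was read by laser scanning cytometry, and IC50 curves were fitted.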
# TBK1 = target: T2, TBK1 (Homo sapiens, UniProt Q9UHD2); assay: TBK Biochemical Assay; conditions: read-out: TBK1 IC50
# T2 sequence (Q9UHD2 1-729): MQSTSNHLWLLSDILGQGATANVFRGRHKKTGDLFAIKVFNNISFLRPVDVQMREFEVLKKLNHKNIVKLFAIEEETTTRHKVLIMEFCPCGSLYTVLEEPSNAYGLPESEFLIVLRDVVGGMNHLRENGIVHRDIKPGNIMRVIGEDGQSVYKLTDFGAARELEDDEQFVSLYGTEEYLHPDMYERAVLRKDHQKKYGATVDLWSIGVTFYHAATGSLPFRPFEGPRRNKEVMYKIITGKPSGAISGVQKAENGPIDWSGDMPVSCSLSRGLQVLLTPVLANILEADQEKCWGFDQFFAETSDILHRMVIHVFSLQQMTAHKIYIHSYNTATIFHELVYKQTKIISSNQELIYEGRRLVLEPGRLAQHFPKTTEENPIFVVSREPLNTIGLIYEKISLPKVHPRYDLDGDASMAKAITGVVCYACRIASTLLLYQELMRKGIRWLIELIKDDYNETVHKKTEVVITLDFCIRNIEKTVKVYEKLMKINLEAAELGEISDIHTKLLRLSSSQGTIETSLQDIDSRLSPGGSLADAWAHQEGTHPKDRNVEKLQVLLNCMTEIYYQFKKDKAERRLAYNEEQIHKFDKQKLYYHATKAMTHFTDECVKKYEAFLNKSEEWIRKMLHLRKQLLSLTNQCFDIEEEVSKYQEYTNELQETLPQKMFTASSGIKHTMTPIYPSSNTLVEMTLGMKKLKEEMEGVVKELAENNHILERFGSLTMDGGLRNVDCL
# Procedure, shortened: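 TBK1 enzyme and substrate incubated with compounds (10-point 1:4 dilution, top 30 uM final, 1% DMSO) for 90 min at 25° C, then stopped. Substrate/product peaks read by microfluidic mobility-shift (Caliper LabChip); 10 uM staurosporine as full-inhibition control.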
Compound,IC50 (IKKε) [nM],IC50 [1] [nM],IC50 (TBK1) [nM]
"CC1(O)CN(C(=O)c2ccc(-c3cc4nccc(-c5ccc(OC6CCOCC6)c(C#N)c5)c4o3)cc2)C1 [Compound 124, 5-{2-[4-(3-Hydroxy-3-methyl-azetidine-1-carbonyl)-phenyl]-furo[3,2-b]pyridin-7-yl}-2-(tetrahydro-pyran-4-yloxy)-benzonitrile]",< 100,1000 to 5000,< 100
"COc1cc(C(=O)NC2CCN(C(=O)OC(C)(C)C)C2)ccc1-c1cc2nccc(-c3ccc(OC4CCOCC4)c(C#N)c3)c2o1 (stereo not drawn) [Compound 125, 3-(4-{7-[3-Cyano-4-(tetrahydro-pyran-4-yloxy)-phenyl]-furo[3,2-b]pyridin-2-yl}-3-methoxy-benzoylamino)-pyrrolidine-1-carboxylic acid tert-butyl ester]",< 100,100 to 1000,< 100
CN(C)C(=O)c1ccc(-c2cc3nccc(-c4ccc(OC5CCOCC5F)c(C#N)c4)c3o2)cc1 (stereo not drawn) [Compound 129],< 100,100 to 1000,< 100
"COc1cc(C(=O)NC2CCNC2)ccc1-c1cc2nccc(-c3ccc(NC4CCOCC4)c(C#N)c3)c2o1 (stereo not drawn) [Compound 130, 4-{7-[3-Cyano-4-(tetrahydro-pyran-4-ylamino)-phenyl]-furo[3,2-b]pyridin-2-yl}-3-methoxy-N-pyrrolidin-3-yl-benzamide]",< 100,100 to 1000,< 100
"N#Cc1cc(-c2ccnc3cc(-c4ccc(C(=O)N5CCN(C6CC6)CC5)cc4)oc23)ccc1OC1CCOCC1 [Compound 133, 5-{2-[4-(4-Cyclopropyl-piperazine-1-carbonyl)-phenyl]-furo[3,2-b]pyridin-7-yl}-2-(tetrahydro-pyran-4-yloxy)-benzonitrile]",< 100,1000 to 5000,< 100
"COc1cc(C(=O)NC(C)(C)CN(C)C)ccc1-c1cc2nccc(-c3ccc(NC4CCOCC4)c(C#N)c3)c2o1 [Compound 134, 4-{7-[3-Cyano-4-(tetrahydro-pyran-4-ylamino)-phenyl]-furo[3,2-b]pyridin-2-yl}-N-(2-dimethylamino-1,1-dimethyl-ethyl)-3-methoxy-benzamide]",< 100,100 to 1000,< 100
"N#Cc1cc(-c2ccnc3cc(-c4ccc(C(=O)N[C@H]5CNCC[C@@H]5F)cc4)oc23)ccc1OC1CCOCC1 [Compound 135, 4-{7-[3-Cyano-4-(tetrahydro-pyran-4-yloxy)-phenyl]-furo[3,2-b]pyridin-2-yl}-N-((3S,4S)-4-fluoro-piperidin-3-yl)-benzamide]",< 100,100 to 1000,< 100
"N#Cc1cc(-c2ccnc3cc(-c4ccc(C(=O)N5CC[C@H](F)C5)cc4)oc23)ccc1OC1CCOCC1 [Compound 136, 5-{2-[4-((S)-3-Fluoro-pyrrolidine-1-carbonyl)-phenyl]-furo[3,2-b]pyridin-7-yl}-2-(tetrahydro-pyran-4-yloxy)-benzonitrile]",< 100,1000 to 5000,< 100
N#Cc1cc(-c2ccnc3cc(-c4cnn(C5COC5)c4)oc23)ccc1OC1CCOCC1 [Compound 138],< 100,1000 to 5000,< 100
"N#Cc1cc(-c2ccnc3cc(-c4ccc(C(=O)NC5CN6CCC5CC6)cc4F)oc23)ccc1OC1CCOCC1 (stereo not drawn) [Compound 139, N-(1-Aza-bicyclo[2.2.2]oct-3-yl)-4-{7-[3-cyano-4-(tetrahydro-pyran-4-yloxy)-phenyl]-furo[3,2-b]pyridin-2-yl}-3-fluoro-benzamide]",< 100,100 to 1000,< 100
"COc1cc(C(=O)N(C)C)ccc1-c1cc2nccc(-c3ccc(OC4CCCNC4)c(C#N)c3)c2o1 (stereo not drawn) [Compound 140, 4-{7-[3-Cyano-4-(piperidin-3-yloxy)-phenyl]-furo[3,2-b]pyridin-2-yl}-3-methoxy-N,N-dimethyl-benzamide Hydrochloride]",< 100,< 100,< 100
